# Results: PubChem BioAssay (NCI)
#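 How tested: cells in 96-well plates exposed to compound for 48 hours at five concentrations. Abbreviation: GI50, concentration required for 50% inhibition of growth. TGI denotes the concentration required for complete inhibition of growth.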
# Columns and labels:
# Experiment in all cases: NCI-60 cell line screen, 48 h
# 786-0 renal = tested on: 786-0 renal
# A498 renal = tested on: A498 renal
# A549 NSCLC = tested on: A549 NSCLC
# ACHN renal = tested on: ACHN renal
# BT-549 breast = tested on: BT-549 breast
# CAKI-1 renal = tested on: CAKI-1 renal
# CCRF-CEM leukemia = tested on: CCRF-CEM leukemia
# COLO 205 colon = tested on: COLO 205 colon
# DU-145 prostate = tested on: DU-145 prostate
# EKVX NSCLC = tested on: EKVX NSCLC
# HCC-2998 colon = tested on: HCC-2998 colon
# HCT-116 colon = tested on: HCT-116 colon
# HCT-15 colon = tested on: HCT-15 colon
# HL-60(TB) leukemia = tested on: HL-60(TB) leukemia
# HOP-62 NSCLC = tested on: HOP-62 NSCLC
# HOP-92 NSCLC = tested on: HOP-92 NSCLC
# HS 578T breast = tested on: HS 578T breast
# HT29 colon = tested on: HT29 colon
# IGROV1 ovarian = tested on: IGROV1 ovarian
# K-562 leukemia = tested on: K-562 leukemia
# KM12 colon = tested on: KM12 colon
# LOX IMVI melanoma = tested on: LOX IMVI melanoma
# M14 melanoma = tested on: M14 melanoma
# MALME-3M melanoma = tested on: MALME-3M melanoma
# MCF7 breast = tested on: MCF7 breast
# MDA-MB-231 breast = tested on: MDA-MB-231 breast
# MDA-MB-435 = tested on: MDA-MB-435
# MDA-MB-468 breast = tested on: MDA-MB-468 breast
# MOLT-4 leukemia = tested on: MOLT-4 leukemia
# NCI-H226 lung = tested on: NCI-H226 lung
# NCI-H23 lung = tested on: NCI-H23 lung
# NCI-H460 lung = tested on: NCI-H460 lung
# NCI-H522 lung = tested on: NCI-H522 lung
# NCI/ADR-RES ovarian = tested on: NCI/ADR-RES ovarian
# OVCAR-3 ovarian = tested on: OVCAR-3 ovarian
# OVCAR-4 ovarian = tested on: OVCAR-4 ovarian
# OVCAR-5 ovarian = tested on: OVCAR-5 ovarian
# OVCAR-8 ovarian = tested on: OVCAR-8 ovarian
# PC-3 prostate = tested on: PC-3 prostate
# RPMI-8226 leukemia = tested on: RPMI-8226 leukemia
# RXF 393 renal = tested on: RXF 393 renal
# SF-268 CNS = tested on: SF-268 CNS
# SF-295 CNS = tested on: SF-295 CNS
# SF-539 CNS = tested on: SF-539 CNS
# SK-MEL-2 melanoma = tested on: SK-MEL-2 melanoma
# SK-MEL-28 melanoma = tested on: SK-MEL-28 melanoma
# SK-MEL-5 melanoma = tested on: SK-MEL-5 melanoma
# SK-OV-3 ovarian = tested on: SK-OV-3 ovarian
# SN12C renal = tested on: SN12C renal
# SNB-19 CNS = tested on: SNB-19 CNS
# SNB-75 CNS = tested on: SNB-75 CNS
# SR leukemia = tested on: SR leukemia
# SW-620 colon = tested on: SW-620 colon
# T-47D breast = tested on: T-47D breast
# TK-10 renal = tested on: TK-10 renal
# U251 CNS = tested on: U251 CNS
# UACC-257 melanoma = tested on: UACC-257 melanoma
# UACC-62 melanoma = tested on: UACC-62 melanoma
# UO-31 renal = tested on: UO-31 renal
smiles,measurement,setting,value
Nc1nc(Nc2ccc(Cl)cc2)n(Cc2cccc(Br)c2)n1,GI50,786-0 renal,34.9 µM
same,TGI,786-0 renal,> 100 µM
same,GI50,A498 renal,26.7 µM
same,TGI,A498 renal,85.9 µM
same,GI50,A549 NSCLC,32.9 µM
same,TGI,A549 NSCLC,> 100 µM
same,GI50,ACHN renal,29.3 µM
same,TGI,ACHN renal,> 100 µM
same,GI50,BT-549 breast,38.8 µM
same,TGI,BT-549 breast,92 µM
same,GI50,CAKI-1 renal,25.9 µM
same,TGI,CAKI-1 renal,> 100 µM
same,GI50,CCRF-CEM leukemia,36.8 µM
same,TGI,CCRF-CEM leukemia,> 100 µM
same,GI50,COLO 205 colon,37.4 µM
same,TGI,COLO 205 colon,> 100 µM
same,GI50,DU-145 prostate,41.1 µM
same,TGI,DU-145 prostate,> 100 µM
same,GI50,EKVX NSCLC,25.2 µM
same,TGI,EKVX NSCLC,> 100 µM
same,GI50,HCC-2998 colon,27 µM
same,TGI,HCC-2998 colon,> 100 µM
same,GI50,HCT-116 colon,31.3 µM
same,TGI,HCT-116 colon,> 100 µM
same,GI50,HCT-15 colon,27 µM
same,TGI,HCT-15 colon,> 100 µM
same,GI50,HL-60(TB) leukemia,24.6 µM
same,TGI,HL-60(TB) leukemia,71.8 µM
same,GI50,HOP-62 NSCLC,49 µM
same,TGI,HOP-62 NSCLC,> 100 µM
same,GI50,HOP-92 NSCLC,19.4 µM
same,TGI,HOP-92 NSCLC,63.8 µM
same,GI50,HS 578T breast,24.4 µM
same,TGI,HS 578T breast,96.3 µM
same,GI50,HT29 colon,35.6 µM
same,TGI,HT29 colon,> 100 µM
same,GI50,IGROV1 ovarian,30.7 µM
same,TGI,IGROV1 ovarian,> 100 µM
same,GI50,K-562 leukemia,28 µM
same,TGI,K-562 leukemia,> 100 µM
same,GI50,KM12 colon,33.3 µM
same,TGI,KM12 colon,> 100 µM
same,GI50,LOX IMVI melanoma,17.2 µM
same,TGI,LOX IMVI melanoma,35.9 µM
same,GI50,M14 melanoma,29.5 µM
same,TGI,M14 melanoma,> 100 µM
same,GI50,MALME-3M melanoma,21.5 µM
same,TGI,MALME-3M melanoma,71.2 µM
same,GI50,MCF7 breast,25.1 µM
same,TGI,MCF7 breast,> 100 µM
same,GI50,MDA-MB-231 breast,30.5 µM
same,TGI,MDA-MB-231 breast,> 100 µM
same,GI50,MDA-MB-435,19 µM
same,TGI,MDA-MB-435,42.2 µM
same,GI50,MDA-MB-468 breast,16.8 µM
same,TGI,MDA-MB-468 breast,45.3 µM
same,GI50,MOLT-4 leukemia,25.6 µM
same,TGI,MOLT-4 leukemia,> 100 µM
same,GI50,NCI-H226 lung,25.3 µM
same,TGI,NCI-H226 lung,> 100 µM
same,GI50,NCI-H23 lung,29 µM
same,TGI,NCI-H23 lung,> 100 µM
same,GI50,NCI-H460 lung,23.7 µM
same,TGI,NCI-H460 lung,57.5 µM
same,GI50,NCI-H522 lung,18.7 µM
same,TGI,NCI-H522 lung,44.5 µM
same,GI50,NCI/ADR-RES ovarian,20.2 µM
same,TGI,NCI/ADR-RES ovarian,51.5 µM
same,GI50,OVCAR-3 ovarian,33.8 µM
same,TGI,OVCAR-3 ovarian,> 100 µM
same,GI50,OVCAR-4 ovarian,34 µM
same,TGI,OVCAR-4 ovarian,> 100 µM
same,GI50,OVCAR-5 ovarian,22.3 µM
same,TGI,OVCAR-5 ovarian,73.5 µM
same,GI50,OVCAR-8 ovarian,35.7 µM
same,TGI,OVCAR-8 ovarian,> 100 µM
same,GI50,PC-3 prostate,29.8 µM
same,TGI,PC-3 prostate,> 100 µM
same,GI50,RPMI-8226 leukemia,31.6 µM
same,TGI,RPMI-8226 leukemia,> 100 µM
same,GI50,RXF 393 renal,17 µM
same,TGI,RXF 393 renal,60.5 µM
same,GI50,SF-268 CNS,27.9 µM
same,TGI,SF-268 CNS,> 100 µM
same,GI50,SF-295 CNS,22.6 µM
same,TGI,SF-295 CNS,74.9 µM
same,GI50,SF-539 CNS,22.2 µM
same,TGI,SF-539 CNS,62.1 µM
same,GI50,SK-MEL-2 melanoma,18.9 µM
same,TGI,SK-MEL-2 melanoma,38.1 µM
same,GI50,SK-MEL-28 melanoma,26 µM
same,TGI,SK-MEL-28 melanoma,> 100 µM
same,GI50,SK-MEL-5 melanoma,17.4 µM
same,TGI,SK-MEL-5 melanoma,33.5 µM
same,GI50,SK-OV-3 ovarian,34.5 µM
same,TGI,SK-OV-3 ovarian,> 100 µM
same,GI50,SN12C renal,26.2 µM
same,TGI,SN12C renal,> 100 µM
same,GI50,SNB-19 CNS,30.7 µM
same,TGI,SNB-19 CNS,> 100 µM
same,GI50,SNB-75 CNS,15.5 µM
same,TGI,SNB-75 CNS,60.6 µM
same,GI50,SR leukemia,57.6 µM
same,TGI,SR leukemia,> 100 µM
same,GI50,SW-620 colon,32.8 µM
same,TGI,SW-620 colon,> 100 µM
same,GI50,T-47D breast,30.5 µM
same,TGI,T-47D breast,> 100 µM
same,GI50,TK-10 renal,40 µM
same,TGI,TK-10 renal,> 100 µM
same,GI50,U251 CNS,31.3 µM
same,TGI,U251 CNS,> 100 µM
same,GI50,UACC-257 melanoma,33.6 µM
same,TGI,UACC-257 melanoma,> 100 µM
same,GI50,UACC-62 melanoma,18.3 µM
same,TGI,UACC-62 melanoma,61.1 µM
same,GI50,UO-31 renal,21 µM
same,TGI,UO-31 renal,90.4 µM
